Data: patent publication US20070196344A1, “Methods for identifying materials that can help regulate the condition of mammalian keratinous tissue” (The Procter & Gamble Company, priority 2006, published 2007)

Legend:
Hyaluronic Acid = assay: Hyaluronic acid ELISA on extracts of treated MatTek EpiDermFT (EFT-200) full thickness skin equivalent cultures; type: cell-based, human; conditions: topical 0.5%, 1.0%, 2.0% in water, 20-24 hours, EFT-200 cultures, vs vehicle Control; dose-responsive
Protocol: (§1) To evaluate skin anti-aging benefits of n-acetyl glucosamine and niacinamide. An in vitro skin biomarker experiment is conducted using the MatTek Human Skin EpiDermFT Skin Model (EFT 200; MatTek Corp., Ashland, Mass. USA). The MatTek Skin Model is a full thickness culture system that emulates normal human skin properties and function. It contains a three-dimensional, highly differentiated human epidermis with 8-12 cell layers including basal, spinous, granular and stratum corneum layers; the epidermis is grown above a human dermal fibroblast-containing collagen matrix. The MatTek cultures are air-interfaced, so that test substances can be applied topically to the stratum corneum surface. The cultures are supplied in 24-well, medium-supplemented agarose gels.
(§2) MatTek EFT-200 full thickness skin equivalent cultures used are examined for visual defects and equilibrated overnight after their arrival from the supplier. After treatment with test materials the cultures' viability is confirmed through MTT viability assay. […]
(§3) After treatment for 20-24 hours, replicate (3) cultures are extracted using a mild extraction buffer (T-per). The extract is then analyzed for hyaluronic acid and procollagen-1.
(§4) • 1. […] Analyze supernatant with the Micro BCA kit to quantitate protein concentration. • 4. […]

Procollagen I = Procollagen I ELISA on extracts of treated MatTek EpiDermFT (EFT-200) full thickness skin equivalent cultures; type: cell-based, human; conditions: topical 0.5%, 2.0% in water, 20-24 hours, EFT-200 cultures, vs vehicle Control, dose-responsive
Protocol: as §1, §2, §3, §4

## CC(=O)N[C@@H]1[C@@H](O)[C@H](O)[C@@H](CO)O[C@H]1O [n-Acetyl Glucosamine]
Hyaluronic Acid
  expression of hyaluronic acid: significantly increased over Control
Procollagen I
  expression of procollagen 1: significantly increased over Control
